Test results taken from article PMC11678797, “A Repurposed Drug Selection Pipeline to Identify CNS-Penetrant Drug Candidates for Glioblastoma” (Pharmaceuticals, 2024).

How the values were obtained:
murine P-gp (Abcb1a) = biological target: T1, murine P-gp (Abcb1a) (Mus musculus, UniProt P21447); assay: Concentration equilibrium transport assay (CETA), LLC-PK1 cells transduced with murine Abcb1a; type: in vitro ADME; details: omacetaxine 100 nM, up to 4 h
T1 construct: expressed in transfected cells; host or cells: LLC-PK1 (pig kidney) cells transduced with murine Abcb1a (LLC-Mdr1a)
Procedure: (§1) In vitro transport studies were performed using the LLC pig kidney cell line (LLC-PK1) and sub-lines transduced with murine Abcb1a (LLC-Mdr1a) or human ABCB1 (LLC-MDR1). Similarly, in vitro transport studies were conducted in the parental Madin–Darby canine kidney (MDCK) type II cell line (MDCK-Parent) and murine Abcg2 (MDCK-Bcrp1) or human ABCG2 (MDCK-BCRP) transduced sublines. Concentration equilibrium transport assays (CETA) were performed as previously described. Briefly, cells were grown on polycarbonate membrane filters (3.0 µm pores, 24 mm diameter; Costar Corning, NY, USA) for 4 days. Next, 2 mL of MEM medium containing 10% FCS and omacetaxine (100 nM) was added to both the apical and basal compartments. Then, [14C]-inulin ([…]) was added basolateral to check the membrane integrity. Zosuquidar 1 μM was added to all wells containing MDCK cells to inhibit endogenous (canine) ABCB1. […] The integrity of the membrane was checked by taking 20 μL samples from both apical and basolateral sides for radioactivity counting. […] OMA concentrations were measured using an LC-MS/MS system that consisted of an UltiMate 3000 LC System (Dionex, Sunnyvale, CA, USA) and an API 4000 mass spectrometer (Sciex, Framingham, MA, USA).

human BCRP (ABCG2) = biological target: T2, human BCRP (ABCG2) (Homo sapiens, UniProt Q9UNQ0); assay: Concentration equilibrium transport assay (CETA), MDCK cells transduced with human ABCG2, with zosuquidar; type: in vitro ADME; details: omacetaxine 100 nM, zosuquidar 1 μM, up to 4 h
T2 construct: expressed in transfected cells; host or cells: MDCK type II (canine kidney) cells transduced with human ABCG2 (MDCK-BCRP)
T2 sequence (Q9UNQ0 1-655): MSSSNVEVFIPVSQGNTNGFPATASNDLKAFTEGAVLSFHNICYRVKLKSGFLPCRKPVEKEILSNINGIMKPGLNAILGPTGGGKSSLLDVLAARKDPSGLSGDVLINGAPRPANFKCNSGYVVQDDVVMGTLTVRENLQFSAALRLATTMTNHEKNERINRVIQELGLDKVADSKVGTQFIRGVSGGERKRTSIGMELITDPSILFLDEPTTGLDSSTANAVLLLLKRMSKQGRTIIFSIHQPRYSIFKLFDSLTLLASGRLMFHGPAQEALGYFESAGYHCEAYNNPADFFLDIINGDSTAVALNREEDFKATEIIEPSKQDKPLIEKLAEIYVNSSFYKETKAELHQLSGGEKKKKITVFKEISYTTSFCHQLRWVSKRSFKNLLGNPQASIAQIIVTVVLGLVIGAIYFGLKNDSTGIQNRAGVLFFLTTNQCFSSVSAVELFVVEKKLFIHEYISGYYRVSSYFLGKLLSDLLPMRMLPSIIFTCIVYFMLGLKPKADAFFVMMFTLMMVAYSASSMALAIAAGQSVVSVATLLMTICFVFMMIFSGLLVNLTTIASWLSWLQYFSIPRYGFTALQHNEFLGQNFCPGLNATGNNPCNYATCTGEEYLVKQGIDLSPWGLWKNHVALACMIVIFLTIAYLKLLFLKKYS
Procedure: as §1

murine BCRP (Abcg2) = biological target: T3, murine BCRP (Abcg2) (Mus musculus, UniProt Q7TMS5); assay: Concentration equilibrium transport assay (CETA), MDCK cells transduced with murine Abcg2, with zosuquidar; type: in vitro ADME; details: omacetaxine 100 nM, zosuquidar 1 μM, up to 4 h
T3 construct: expressed in transfected cells; host or cells: MDCK type II (canine kidney) cells transduced with murine Abcg2 (MDCK-Bcrp1)
T3 sequence (Q7TMS5 1-657): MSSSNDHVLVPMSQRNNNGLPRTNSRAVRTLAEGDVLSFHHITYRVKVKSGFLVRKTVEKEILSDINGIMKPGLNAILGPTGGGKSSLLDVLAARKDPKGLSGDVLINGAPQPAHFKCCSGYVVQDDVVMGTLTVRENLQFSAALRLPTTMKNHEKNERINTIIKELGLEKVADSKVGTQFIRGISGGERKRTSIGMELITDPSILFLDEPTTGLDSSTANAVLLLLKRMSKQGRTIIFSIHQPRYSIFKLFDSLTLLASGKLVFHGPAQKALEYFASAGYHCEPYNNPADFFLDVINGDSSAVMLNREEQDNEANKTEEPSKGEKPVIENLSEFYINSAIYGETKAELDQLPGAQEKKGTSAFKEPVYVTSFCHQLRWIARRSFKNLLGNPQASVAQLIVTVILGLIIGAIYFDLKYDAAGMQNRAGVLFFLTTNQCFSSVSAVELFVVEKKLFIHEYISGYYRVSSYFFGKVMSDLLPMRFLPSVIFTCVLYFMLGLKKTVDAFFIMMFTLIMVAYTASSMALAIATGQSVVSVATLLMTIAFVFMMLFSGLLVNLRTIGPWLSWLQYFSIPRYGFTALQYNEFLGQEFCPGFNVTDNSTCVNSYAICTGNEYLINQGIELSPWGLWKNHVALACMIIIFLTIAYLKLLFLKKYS
Procedure: as §1

[1] = source not stated; cited from earlier work

T1 sequence (P21447 whole entry): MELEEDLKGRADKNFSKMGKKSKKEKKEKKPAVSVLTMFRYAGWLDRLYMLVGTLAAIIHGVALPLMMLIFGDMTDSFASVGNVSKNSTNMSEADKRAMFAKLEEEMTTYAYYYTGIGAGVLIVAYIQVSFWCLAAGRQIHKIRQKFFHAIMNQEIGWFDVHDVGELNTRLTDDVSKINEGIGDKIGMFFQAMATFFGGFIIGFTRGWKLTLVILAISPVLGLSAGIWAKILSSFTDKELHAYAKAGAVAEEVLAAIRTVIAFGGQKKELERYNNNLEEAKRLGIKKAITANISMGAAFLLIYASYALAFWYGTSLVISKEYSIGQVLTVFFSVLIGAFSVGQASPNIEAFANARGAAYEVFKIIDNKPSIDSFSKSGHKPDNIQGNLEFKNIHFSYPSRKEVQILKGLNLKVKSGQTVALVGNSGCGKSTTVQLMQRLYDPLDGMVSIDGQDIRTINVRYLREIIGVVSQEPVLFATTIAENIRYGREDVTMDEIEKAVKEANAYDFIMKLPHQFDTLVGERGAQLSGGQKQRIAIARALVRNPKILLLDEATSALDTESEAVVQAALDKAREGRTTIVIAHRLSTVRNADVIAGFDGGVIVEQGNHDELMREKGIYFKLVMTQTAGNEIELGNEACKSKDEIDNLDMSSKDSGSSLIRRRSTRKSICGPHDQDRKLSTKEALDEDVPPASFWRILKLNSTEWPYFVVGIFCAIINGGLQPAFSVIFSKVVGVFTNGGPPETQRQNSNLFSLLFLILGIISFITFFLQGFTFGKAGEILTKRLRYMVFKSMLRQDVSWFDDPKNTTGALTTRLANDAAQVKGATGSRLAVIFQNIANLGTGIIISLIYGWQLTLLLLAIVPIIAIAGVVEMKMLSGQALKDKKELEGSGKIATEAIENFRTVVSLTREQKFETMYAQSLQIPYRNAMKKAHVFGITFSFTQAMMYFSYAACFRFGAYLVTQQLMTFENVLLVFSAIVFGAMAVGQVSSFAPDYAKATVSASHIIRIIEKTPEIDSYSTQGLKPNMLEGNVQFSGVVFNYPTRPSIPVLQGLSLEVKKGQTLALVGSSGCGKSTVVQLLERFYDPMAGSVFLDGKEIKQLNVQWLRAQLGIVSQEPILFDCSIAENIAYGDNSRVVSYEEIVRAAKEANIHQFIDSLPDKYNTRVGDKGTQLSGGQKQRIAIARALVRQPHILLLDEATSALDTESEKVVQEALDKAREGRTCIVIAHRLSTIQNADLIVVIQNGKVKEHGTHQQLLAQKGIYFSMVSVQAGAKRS

## COC(=O)C[C@](O)(CCCC(C)(C)O)C(=O)O[C@@H]1C(OC)=C[C@]23CCCN2CCc2cc4c(cc2[C@H]13)OCO4 [OMA, Omacetaxine mepesuccinate]
Murine P-gp (Abcb1a)
  substrate of P-gp (translocation basolateral to apical): weak substrate
Human BCRP (ABCG2)
  substrate of BCRP (translocation between apical and basolateral compartments): not a substrate
Murine BCRP (Abcg2)
  substrate of BCRP (translocation between apical and basolateral compartments): not a substrate
[1]
  logP value: 1.88
